Here are results for 19 molecules from patent US20040175401A1, “Enhanced parmacokinetic profile of hydrophobic substances” (priority 2001, published 2004).

Data set [1] can be described thus: n-octanol/water partition coefficient LogPoct calculated from solubility data. To be noted: calculated as logPoct = (0.99 - logSw)/1.34. From the text:
where logSw is the molar solubility and logPoct is the water-oil partition coefficient. Using this equation, values for logPoct can be calculated from solubility data.

The conditions of data set [2]: molar aqueous solubility, log value; cited from earlier work.
For data set [3] the following is noted: starred values; log P estimated using SRC program.

Like-named read-outs stand apart in the source and are kept apart here. Marks after values point to notes of the source that are not given here.

For `CCC1(C)C(=O)NC(=O)NC1=O` [5-Me-5-ethylbarbituric acid], the LogPoct in data set [1] was 1.66. Further, the LogSw in data set [2] is −1.23 moles/L. For the molecule `CC1(c2ccccc2)C(=O)NC(=O)NC1=O` [5-Me-5-phenylbarbituric acid], the LogPoct in data set [1] is reported as 2.51. For the same molecule, in data set [2], the LogSw is given as −2.38 moles/L. Take `S=c1cc(-c2ccccc2)ss1` [5-phenyldithiolethione]: the LogPoct in data set [1] is listed as 4.95. Also, the LogSw in data set [2] is on record as −5.64 moles/L.

For the molecule `CC(C)CN(C[C@@H](O)[C@H](Cc1ccccc1)NC(=O)O[C@H]1CCOC1)S(=O)(=O)c1ccc(N)cc1` [Amprenavir], the LogPoct in data set [1] is 3.72. Further, the LogSw in data set [2] is given as −4.00 moles/L. For `C=C(C)C1CC=C(C)C(=O)C1` (centres unmarked) [Carvone], in data set [1], the LogPoct is 1.99. Also, in data set [2], the LogSw is given as −1.67 moles/L. As for `O=C1Nc2ccc(Cl)cc2[C@@](C#CC2CC2)(C(F)(F)F)O1` [Efavirenz], the LogPoct in data set [1] was 4.15. The LogSw in data set [2] is recorded as −4.57 moles/L. Take `C=CC(=C)CCC=C(C)C` [Myrcene]: in data set [1], the LogPoct is listed as 3.41. Also, the LogSw in data set [2] is given as −3.58 moles/L. For the molecule `CC(=O)Nc1nc2c(ncn2COCCOC(C)=O)c(=O)[nH]1` [N2,O-diacetylacyclovir], the LogPoct in data set [1] is given as 2.75. Besides, the LogSw in data set [2] is recorded as −2.70 moles/L. With `CCC[C@@]1(CCc2ccccc2)CC(O)=C([C@H](CC)c2cccc(NS(=O)(=O)c3ccc(C(F)(F)F)cn3)c2)C(=O)O1` [N-(3{(1R)-1-[(6R)-4-hydroxy-2-oxo-6-phenethyl-6-propyl-5,6-dihydro-2H-pyran-3-yl]propyl}phenyl)-5-(trifluoromethyl)-2-pyridinesulfonamide], the LogSw in data set [3] is given as −8.00* moles/L. Turning to `CC(=O)OCCOCn1cnc2c(=O)[nH]c(N)nc21` [O-acetylacyclovir], in data set [1], the LogPoct is 1.38. The LogSw in data set [2] is −0.86 moles/L. With `CCC(=O)NS(=O)(=O)c1ccc(-c2c(-c3ccccc3)noc2C)cc1` [Parecoxib], in data set [3], the LogSw is recorded as −3.16* moles/L. Turning to `CC(C)(C)NC(=O)[C@@H]1C[C@@H]2CCCC[C@@H]2CN1C[C@@H](O)[C@H](Cc1ccccc1)NC(=O)[C@H](CC(N)=O)NC(=O)c1ccc2ccccc2n1` [Saquinavir], in data set [1], the LogPoct is 3.97. Besides, the LogSw in data set [2] was −4.33 moles/L. For the molecule `Cc1onc(-c2ccccc2)c1-c1ccc(S(N)(=O)=O)cc1` [Valdecoxib], in data set [3], the LogSw is recorded as −2.59* moles/L. In the case of `C=C(C)C1CC=C(C)[C@@H](O)C1` (some centres unmarked) [carveol], the LogPoct in data set [1] is given as 2.14. Further, the LogSw in data set [2] is given as −1.88 moles/L. Take `CC(C)Nc1cccnc1N1CCN(C(=O)c2cc3cc(NS(C)(=O)=O)ccc3[nH]2)CC1` [delavirdine]: in data set [1], the LogPoct is 4.29. Besides, the LogSw in data set [2] is recorded as −4.76 moles/L. As to `CC12CCC(C1)C(C)(C)C2O` (centres unmarked) [fenchyl_alcohol], the LogPoct in data set [1] is 2.43. Further, in data set [2], the LogSw is −2.27 moles/L.

Take `C=CC(C)(O)CCC=C(C)C` (centres unmarked) [linalool]: the LogPoct in data set [1] was 2.23. In data set [2], the LogSw is −2.00 moles/L. For the molecule `CC1(C)C2CC3OC3(C)C1C2` (centres unmarked) [pinene_oxide], the LogPoct in data set [1] is given as 2.67. Moreover, the LogSw in data set [2] is −2.59 moles/L. Consider dimethylthiolethione, for which the LogPoct in data set [1] is reported as 3.29. Moreover, the LogSw in data set [2] was −3.42 moles/L.
